Read-outs that look alike come from different tables or passages of the source.
Experiments:
[1] = test system: Mycobacterium tuberculosis; format: cell-based
katGFSAA6 Mtb = assay: Lawn of katGFSAA6 Mtb plated on agar (FIG. 9c-9f); format: cell-based, Mycobacterium tuberculosis
[2] = test system: Mycobacterium tuberculosis Erdman; assay: Biofilm inhibition of Mycobacterium tuberculosis (ocular inspection); format: cell-based; details: for inhibition at 10 µM: read-out: Average % Inhibition at 10 μM; for inhibition at 25 µM: read-out: Average % Inhibition at 25 μM; for minimal effective concentration: concentration at which full biofilm inhibition took place, replicate determinations in one cell
[3] = test system: Erdman Wild-Type Mycobacterium tuberculosis; format: cell-based
[4] = test system: Mycobacterium tuberculosis; format: cell-based; remark: listed apart in the source
Mtb = details: cited from earlier work
[5] = biofilm inhibition, average of three or more measurements (100/50/0% scoring)
[6] = biofilm inhibition, 25 μM, average of three or more measurements (100/50/0% scoring)
[7] = biofilm inhibition, 10 μM, average of three or more measurements (100/50/0% scoring)

Structure (SMILES)	inhibition at 50 µM [2, 5]	minimal effective concentration [2]	inhibition at 25 µM [2, 6]	inhibition at 10 µM [2, 7]	further results
O=C(O)[C@@H]1CSc2c(C3CC3)c(Cc3cccc4ccccc34)cc(=O)n21 [(3R)-7-Cyclopropyl-6-[(1-naphthyl)methyl]-4-oxo-1-thia-3a-aza-3-indancarboxylic acid]	–	–	–	–	eradication of Mycobacterium tuberculosis (conclusion) [1]: did not eradicate
O=C(O)[C@@H]1CSc2c(C3CC3)c(Cc3cccc4ccccc34)cc(=O)n21 [Example 1, (3R)-7-Cyclopropyl-6-[(1-naphthyl)methyl]-4-oxo-1-thia-3a-aza-3-indancarboxylic acid]	–	–	–	–	growth of katGFSAA6 strain on agar (katGFSAA6 Mtb): able to grow; inhibition at 10 µM [2]: 100%; inhibition at 25 µM [2]: 100%; doubling time [3]: 52 h; fold less Mtb in the culture as compared to controls (CFU) [3]: 7.6 fold
O=c1cc(Cc2cccc3ccccc23)c(C2CC2)c2n1CCS2 [Example 31, 7-Cyclopropyl-6-[(1-naphthyl)methyl]-1-thia-3a-aza-4-indanone]	100%	–	–	–	–
O=C(O)[C@@H]1CSc2c(C3CC3)c(Cc3cccc4ccccc34)c(CO)c(=O)n21 [Example 32, (3R)-7-Cyclopropyl-5-(hydroxymethyl)-6-[(1-naphthyl)methyl]-4-oxo-1-thia-3a-aza-3-indancarboxylic acid]	–	50 µM	–	–	–
N[C@@H]1CSc2c(C3CC3)c(Cc3cccc4ccccc34)cc(=O)n21 [Example 33, (3S)-3-Amino-7-cyclopropyl-6-[(1-naphthyl)methyl]-1-thia-3a-aza-4-indanone]	–	25 µM	–	–	–
O=C(O)[C@@H]1[C@@H](c2ccccc2)Sc2c(C3CC3)c(Cc3cccc4ccccc34)cc(=O)n21 [Example 34, (2R,3R)-7-Cyclopropyl-6-[(1-naphthyl)methyl]-4-oxo-2-phenyl-1-thia-3a-aza-3-indancarboxylic acid]	25%	30 µM	–	–	–
CO[C@H]1Sc2c(C3CC3)c(Cc3cccc4ccccc34)cc(=O)n2[C@@H]1C(=O)O [Example 35, (2S,3R)-7-Cyclopropyl-2-methoxy-6-[(1-naphthyl)methyl]-4-oxo-1-thia-3a-aza-3-indancarboxylic acid]	–	50 µM	25%	–	inhibition at 100 µM [2, 5]: 75%
O=C(O)C1CSc2c(C3CC3)c(Cc3cccc(C(F)(F)F)c3)cc(=O)n21 (stereo not drawn) [Example 36, 7-Cyclopropyl-4-oxo-6-{[m-(trifluoromethyl)phenyl]methyl}-1-thia-3a-aza-3-indancarboxylic acid]	100%	–	100%	100%	–
CCC(CO)NCCNC(CC)COC(=O)C1CSc2c(C3CC3)c(Cc3cccc4ccccc34)cc(=O)n21 (stereo not drawn) [Example 37, 2-{2-[1-(Hydroxymethyl)propylamino]ethylamino}butyl 7-cyclopropyl-6-[(1-naphthyl)methyl]-4-oxo-1-thia-3a-aza-3-indancarboxylate]	100%	–	100%	100%	–
O=C(NNC(=O)C1CSc2c(C3CC3)c(Cc3cccc4ccccc34)cc(=O)n21)c1ccncc1 (stereo not drawn) [Example 38, {7-Cyclopropyl-6-[(1-naphthyl)methyl]-4-oxo-1-thia-3a-aza-3-indanyl}(2-isonicotinoylhydrazino)formaldehyde]	100%	25 µM	100%	100%	–
COc1ccc(Cc2cc(=O)n3c(c2C2CC2)SCC3C(=O)O)c2ccccc12 (stereo not drawn) [Example 39, 7-Cyclopropyl-6-[(4-methoxy-1-naphthyl)methyl]-4-oxo-1-thia-3a-aza-3-indancarboxylic acid]	100%	–	100%	50%	–
CN(C)c1c(Cc2cccc3ccccc23)cc(=O)n2c1SC[C@H]2C(=O)O [Example 40, (3R)-7-(Dimethylamino)-6-[(1-naphthyl)methyl]-4-oxo-1-thia-3a-aza-3-indancarboxylic acid]	50%	–	100%	50%	–
O=C(O)[C@@H]1CSc2c(C3CC3)c(Cc3cccc4ccccc34)c(Br)c(=O)n21 [Example 41, (3R)-5-Bromo-7-cyclopropyl-6-[(1-naphthyl)methyl]-4-oxo-1-thia-3a-aza-3-indancarboxylic acid]	88%	–	62%	25%	inhibition at 100 µM [2, 5]: 100%
O=C(O)C1CS(=O)(=O)c2c(C3CC3)c(Cc3cccc4ccccc34)cc(=O)n21 (stereo not drawn) [Example 42, 7-Cyclopropyl-6-[(1-naphthyl)methyl]-1,1-dioxo-4-oxo-1-thia-3a-aza-3-indancarboxylic acid]	12%	–	12%	50%	–
Cc1cccc(NCc2cc(=O)n3c(c2C2CC2)SC[C@H]3C(=O)O)c1C [Example 43, (3R)-7-Cyclopropyl-4-oxo-6-[(2,3-xylidino)methyl]-1-thia-3a-aza-3-indancarboxylic acid]	100%	–	50%	–	–
O=C(O)C1C[S+]([O-])c2c(C3CC3)c(Cc3cccc4ccccc34)cc(=O)n21 (stereo not drawn) [Example 44, 7-Cyclopropyl-6-[(1-naphthyl)methyl]-1-oxo-4-oxo-1-thia-3a-aza-3-indancarboxylic acid]	100%	–	75%	25%	–
CCOc1c(Cc2cccc3ccccc23)cc(=O)n2c1SC[C@H]2C(=O)O [Example 45, (3R)-7-Ethoxy-6-[(1-naphthyl)methyl]-4-oxo-1-thia-3a-aza-3-indancarboxylic acid]	25%	–	50%	–	–
CC1(C)Sc2c(C3CC3)c(Cc3cccc4ccccc34)cc(=O)n2[C@@H]1C(=O)O [Example 46, (3R)-7-Cyclopropyl-2,2-dimethyl-6-[(1-naphthyl)methyl]-4-oxo-1-thia-3a-aza-3-indancarboxylic acid]	38%	–	62%	–	–
O=C(O)[C@@H]1CSc2c(C(F)(F)F)c(Cc3cccc4ccccc34)cc(=O)n21 [Example 47, (3R)-6-[(1-Naphthyl)methyl]-4-oxo-7-(trifluoromethyl)-1-thia-3a-aza-3-indancarboxylic acid]	100%	> 50 µM	–	–	–
CC(C)COc1c(Cc2cccc3ccccc23)cc(=O)n2c1SC[C@H]2C(=O)O [Example 48, (3R)-7-Isobutoxy-6-[(1-naphthyl)methyl]-4-oxo-1-thia-3a-aza-3-indancarboxylic acid]	50%	–	–	–	–
COc1ccc2ccccc2c1Cc1cc(=O)n2c(c1C1CC1)SC[C@H]2C(=O)O [Example 49, (3R)-7-Cyclopropyl-6-[(2-methoxy-1-naphthyl)methyl]-4-oxo-1-thia-3a-aza-3-indancarboxylic acid]	–	25 µM	–	–	–
O=C(O)[C@@H]1CSc2c(OCC3CC3)c(Cc3cccc4ccccc34)cc(=O)n21 [Example 50, (3R)-7-(Cyclopropylmethoxy)-6-[(1-naphthyl)methyl]-4-oxo-1-thia-3a-aza-3-indancarboxylic acid]	25%	–	–	–	–
NNC(=O)c1ccncc1 [INH, isonicotinylhydrazide, reference compound]	–	–	–	–	tuberculosis bacteria detected (ratio of CFU treated/untreated) ([4]; […], Example 1 50 microM, Example 19 25 microM): tuberculosis bacteria remained; eradication of Mycobacterium tuberculosis (conclusion) ([4]; conclusions from FIG. 5 and FIG. 6 experiments): did not eradicate; growth of katGFSAA6 strain on agar (katGFSAA6 Mtb; agar plates containing INH, Example 1 or combination): able to grow; MIC (Mtb): 0.02 to 0.06 mg/L; Mtb growth as measured by ODλ600 [3]: completely inhibited; culturable bacteria remaining (CFU) [3]: several thousand

Reference: patent publication US20230115208A1, “RING-FUSED THIAZOLINO 2-PYRIDONES, METHODS FOR PREPARATION THEREOF AND THEIR USE IN THE TREATMENT AND/OR PREVENTION OF TUBERCULOSIS” (QURETECH BIO AB, priority 2016, published 2023)
